Reference: patent US10656162B2, “Use of glu-tubulin as a biomarker of drug response to furazanobenzimidazoles” (Basilea Pharmaceutica AG, priority 2011, dated 2020)

Key:
[1] = tested on: CXF 1103 patient-derived colorectal tumour; assay: Colony outgrowth assay, CXF 1103; format: cell-based, human
Protocol: (§1) Single cell suspensions of patient-derived tumour xenografts (maintained in nude mice) were prepared. For colony outgrowth assays, cells were plated in soft agar in 24-well plates according to the assay introduced by Hamburger & Salmon (Primary bioassay of human tumour stem cells, Science, 1977.197:461-463). 2×10^4-6×10^4 cells in 0.2 mL medium containing 0.4% agar were plated out on a bottom layer of 0.75% agar. Test compounds were applied in 0.2 mL culture medium. Every 24-well plate contained untreated controls and samples in triplicates. Cultures were incubated at 37° C. and 7.5% CO2 for 5-28 days. 24 hours prior to analysis, vital colonies were stained with a solution of metabolisable tetrazolium salt (Alley M C et al, Life Sci. 1982, 31:3071-3078) and were counted with an automatic image analysis system (Omnicon 3600, Biosys GmbH).
(§2) Relative drug effects were expressed by the ratio of the mean number of colonies in the treated wells and the control wells. IC70-values were determined by plotting compound concentrations versus relative colony counts.

[2] = tested on: experimental, solid tumour xenograft models; assay: Solid tumour xenograft models; conditions: in vivo
[3] = tested on: MEXF 1341 patient-derived melanoma; assay: Colony outgrowth assay, MEXF 1341; format: cell-based, human; set-up: key to Response to compound (BAL27862, paclitaxel, vinblastine): Sensitive: BAL27862-sensitive tumour cells have IC70 values in the low nanomolar range; Resistant: BAL27862-resistant tumour cells are defined by IC70 values >600 nanomolar
Protocol: as §1, §2

[4] = tested on: CXF 243 patient-derived colorectal tumour; assay: Colony outgrowth assay, CXF 243; format: cell-based, human; conditions: CXF 243, 70% growth inhibition versus controls
Protocol: as §1, §2

[5] = tested on: H460 BAL27862-resistant cell line variant; assay: Crystal Violet assay, BAL27862-resistant H460 versus parental line; format: cell-based, human
From the text: (§3) BAL27862-resistant sublines of human non-small cell lung cancer (H460 ATCC reference HTB-177; A549 ATCC reference CCL-185), ovarian cancer (SKOV3 ATCC reference HTB-77) lines were generated by long-term selection in complete cell culture medium (RPMI-1640 containing 10% FCS; Sigma-Aldrich) by stepwise increasing concentrations of BAL27862. […] The resistant sublines were expanded at the highest tolerated BAL27862 concentration and subsequently frozen and stored in liquid nitrogen.
(§4) After medium was removed, cells were fixed and stained by adding 50 μl Crystal Violet Staining (0.2% Crystal Violet in 50% Methanol) per well. Plates were incubated for 1 hour at room temperature. Subsequently the stain was decanted and plates were washed 4 times with double-distilled water. Plates were air-dried for several hours. Stain was dissolved by adding 100 μl buffer (0.1 M Tris pH 7.5, 0.2% SDS, 20% Ethanol) per well and shaking the plates. Absorbance at 590 nm was measured using a SpectraMax M2e plate reader (Molecular Devices). Anti-proliferative IC50 values were calculated from concentration response curves using GraphPad Prism software. Resistance factors were calculated as a ratio of BAL27862 IC50 in the resistant line variant versus the IC50 in the parental line.

A549 NSCLC cells = assay: Immunofluorescent staining of microtubules, A549; format: cell-based, human; conditions: for Microtubule phenotype of mitotic or G2/M arrested cells: A549, 24 hours, 50 nM BAL27862, 80 nM Compound B, 20 nM Compound C, anti-alpha-tubulin staining
Protocol: (§5) A549 human non-small cell lung cancer (NSCLC, ATCC reference number CCL-185) cells, HeLa cervical cancer cells (ATCC reference number CCL-2) and SKBR3 breast carcinoma cells (ATCC reference number HTB-30) were seeded at densities of 50% on round microscope coverslips and cultured for 24 hours in RPMI-1640 containing 10% FCS (also referred to as FBS) at 37° C., 5% CO2. Compounds to be tested were dissolved in DMSO. The cell culture medium was replaced with medium containing the diluted compound(s) (paclitaxel, vinblastine, colchicine and nocodazole were purchased from Sigma-Aldrich) or vehicle. After treatment for the times indicated in the Brief Description of the Figures, coverslips were washed and cells were fixed in methanol/acetone (1:1) for 5 minutes at room temperature and subsequently incubated in blocking buffer (0.5% BSA and 0.1% TX-100 in PBS) for 30 minutes at room temperature. Specimens were then incubated with anti-alpha-tubulin (Sigma, 1:2000) for 1 hour at room temperature in blocking buffer. After several washing steps cells were incubated with AlexaFluor-488 goat-anti-mouse IgG (Molecular Probes, 1:3000) for 1 hour at room temperature followed by several washing steps with blocking buffer. Specimens were then mounted with ProLong Gold antifade (Molecular Probes, sealed with nail polish and examined with a Leica immunofluorescence microscope. Images were captured with a cooled CCD-camera and processed by ImageJ software.

[6] = tested on: LXFE 211 Patient-derived lung tumour; assay: Colony outgrowth assay, LXFE 211; format: cell-based, human; set-up: key to Response to compound (BAL27862, paclitaxel, vinblastine): Sensitive: BAL27862-sensitive tumour cells have IC70 values in the low nanomolar range; Resistant: BAL27862-resistant tumour cells are defined by IC70 values >600 nanomolar
Protocol: as §1, §2

[7] = tested on: HeLa cervical cancer cells; assay: Immunofluorescent staining of microtubules, HeLa; format: cell-based, human; conditions: 24 hours, 50 nM BAL27862
Protocol: as §5, with “Specimens were then mounted with ProLong Gold antifade (Molecular Probes, sealed with nail polish and examined with a Leica immunofluorescence microscope. Images were captured with a cooled CCD-camera and processed by ImageJ software.” left out

[8] = tested on: MEXF 276 patient-derived melanoma; assay: Colony outgrowth assay, MEXF 276; format: cell-based, human
Protocol: as §1, §2

SKOV3 resistant 2 = assay: Crystal Violet assay, SKOV3 resistant 2 versus parental line; format: cell-based, human
From the text: as §3, §4

[9] = tested on: SKBR3 breast cancer cells; assay: Immunofluorescent staining of microtubules, SKBR3; format: cell-based, human; conditions: SKBR3, 24 hours, 50 nM BAL27862
Protocol: as §5, with “Specimens were then mounted with ProLong Gold antifade (Molecular Probes, sealed with nail polish and examined with a Leica immunofluorescence microscope. Images were captured with a cooled CCD-camera and processed by ImageJ software.” left out

[10] = tested on: LXFE 397 Patient-derived lung tumour; assay: Colony outgrowth assay, LXFE 397; format: cell-based, human
Protocol: as §1, §2

[11] = tested on: A549 BAL27862-resistant cell line variant; assay: Crystal Violet assay, BAL27862-resistant A549 versus parental line; format: cell-based, human
From the text: as §3, §4

SKOV3 resistant 1 = assay: Crystal Violet assay, SKOV3 resistant 1 versus parental line; format: cell-based, human
From the text: as §3, §4

[12] = tested on: P-gp pump over-expressing models; assay: Models over-expressing the P-gp pump; format: cell-based; conditions: models tested in vitro; also human mammary tumour xenografts

N#CCCNc1nonc1-c1nc2ccccc2n1CC(=O)c1ccc(N)cc1 [BAL27862, 3-(4-{1-[2-(4-Amino-phenyl)-2-oxo-ethyl]-1H-benzoimidazol-2-yl}-furazan-3-ylamino)-propionitrile]
IC70 BAL27862 ([1]; CXF 1103, 70% growth inhibition versus controls): 0.022 µM | Response to compound (BAL27862, paclitaxel, vinblastine) ([1]; CXF 1103, colorectal cancer, ex vivo colony outgrowth): Sensitive | Activity in tumour xenograft models [2]: activity across a broad panel of experimental, solid tumour xenograft models | IC70 BAL27862 ([3]; MEXF 1341, 70% growth inhibition versus controls): 0.025 µM | Response to compound (BAL27862, paclitaxel, vinblastine) ([3]; MEXF 1341, melanoma, ex vivo colony outgrowth): Sensitive | IC70 BAL27862 [4]: 0.696 µM | Resistance factors (ratio of IC50 BAL27862-resistant cell line variant and IC50 parental cell line) ([5]; H460, 72 hours, Crystal Violet): 5.3 | BAL27862 resistance factors versus parental lines ([5]; H460, based on IC50 determinations): 5.3 fold | Microtubule phenotype on combination treatment (A549 NSCLC cells; A549, 24 hours vinblastine, colchicine, paclitaxel or nocodazole with the final 4 hours including BAL27862): disruption of the microtubule structures | Microtubule phenotype of mitotic or G2/M arrested cells (A549 NSCLC cells): multiple dot-like structures are visible | Microtubule phenotype of mitotic or G2/M arrested cells (A549 NSCLC cells; listed as compound A): highly reproducible and distinct microtubule phenotype | IC70 BAL27862 ([6]; LXFE 211, 70% growth inhibition versus controls): 0.021 µM | Response to compound (BAL27862, paclitaxel, vinblastine) ([6]; LXFE 211, lung cancer, ex vivo colony outgrowth): Sensitive | Microtubule phenotype of mitotic or G2/M arrested cells [7]: highly reproducible and distinct microtubule phenotype | IC70 BAL27862 ([8]; MEXF 276, 70% growth inhibition versus controls): >3.5 µM | Response to compound (BAL27862, paclitaxel, vinblastine) ([8]; MEXF 276, melanoma, ex vivo colony outgrowth): Resistant (BAL27862-resistant tumour cells are defined by IC70 values >600 nanomolar) | Resistance factors (ratio of IC50 BAL27862-resistant cell line variant and IC50 parental cell line) (SKOV3 resistant 2; SKOV3 resistant 2, 72 hours, Crystal Violet): 11.6 | BAL27862 resistance factors versus parental lines (SKOV3 resistant 2; SKOV3 resistant 2, based on IC50 determinations): 11.6 fold | Microtubule phenotype of mitotic or G2/M arrested cells [9]: highly reproducible and distinct microtubule phenotype | IC70 BAL27862 ([10]; LXFE 397, 70% growth inhibition versus controls): >3.5 µM | Response to compound (BAL27862, paclitaxel, vinblastine) ([10]; LXFE 397, lung cancer, ex vivo colony outgrowth): Resistant (BAL27862-resistant tumour cells are defined by IC70 values >600 nanomolar) | Resistance factors (ratio of IC50 BAL27862-resistant cell line variant and IC50 parental cell line) ([11]; A549, 72 hours, Crystal Violet): 3.0 | BAL27862 resistance factors versus parental lines ([11]; A549, based on IC50 determinations): 3.0 fold | Resistance factors (ratio of IC50 BAL27862-resistant cell line variant and IC50 parental cell line) (SKOV3 resistant 1; SKOV3 resistant 1, 72 hours, Crystal Violet): 7.6 | BAL27862 resistance factors versus parental lines (SKOV3 resistant 1; SKOV3 resistant 1, based on IC50 determinations): 7.6 fold | Activity with over-expression of the P-gp pump [12]: not affected
